From patent publication US12310973B2, “Administration and dosage of diaminophenothiazines” (WisTa Laboratories Ltd., priority 2016, dated 2025)

System: mild to moderate AD patients
Assay: Phase 3 trial in mild to moderate AD: MRI volumetry (LVV, TPV, HV)
Format: in vivo, human
Conditions: for HV, Estimate (difference vs control) / LVV, Estimate (difference vs control) / TPV, Estimate (difference vs control): Table 5
Source text: The co-primary efficacy outcomes were change from baseline in 11-item Alzheimer's Disease Assessment Scale—cognitive subscale (ADAS-cog) and the 23-item Alzheimer's Disease Cooperative Study Activities of Daily Living (ADCS-ADL). Magnetic resonance imaging (MRI) volumetry was chosen as the principal secondary outcome to support a potential effect on the rate of brain atrophy (Fox et al., 1997; Ridha et al., 2008). Change in Lateral Ventricular Volume (LVV), as measured by the Ventricular Boundary Shift Integral (VBSI), (Salloway et al., 2014) was chosen as the principal measure as it provides high-contrast boundaries for measurement and is less affected by motion artefacts than whole brain or smaller structures. Key supportive topographical measures (temporo-parietal (TPV) and hippocampal volume (HV)) are also reported.
ADAS-cog and ADCS-ADL assessments were performed at baseline and every 13 weeks thereafter, with change at 65 weeks (the final on-treatment visit) the primary efficacy measures. These were repeated at the final off-treatment follow-up visit at Week 69. Secondary efficacy measures included Clinical Global Impression of Change (ADCS-CGIC, administered by an independent rater); MMSE, administered on screening and at Weeks 26, 52, 65 and 69. Brain MRI scans were performed at baseline/screening and every 13 weeks using a standardized protocol including volumetric 3D T1-weighted data consistent with ADNI recommendations, FLAIR, T2* Gradient Echo and T2-weighted sequences. Diffusion-Weighted Imaging was also available at screening in order to exclude patients with co-existing pathology that would lead to a diagnosis other than probable AD. Each site was first qualified ensuring standardised acquisition protocol, patient handling and data management. MRI data were centrally collected by Imaging Corelab (Bioclinica). Data were centrally reviewed by RadMD for eligibility and safety (Amyloid Related Imaging Abnormalities, or ARIA monitoring) on an on-going basis. Volumetric 3DT1 data were also reviewed centrally in order to measure (using a boundary shift integral (BSI) technique; Salloway et al., 2014) change in LVV as principal secondary outcome measure, and as exploratory endpoints temporo-parietal volume (TPV), whole brain volume (WBV) and hippocampal volume (HV, estimated as the mean of left and right) (Wischik et al., 2016). Additional exploratory endpoints included change in glucose uptake in the temporal lobe, assessed using ^18F-fluorodeoxyglucose positron emission tomography (FDG-PET) performed during screening and at Weeks 39 and 65 in a subset of patients in sites with this imaging capability. Changes in cerebrospinal fluid biomarkers of Alzheimer's disease, including total tau, phospho-tau and amyloid-β1-42, were explored using cerebrospinal fluid samples that were collected at baseline and Week 65 (or early termination visit). Lumbar punctures were performed only in subjects who were themselves able to provide consent specifically for this procedure.
The primary efficacy analyses of change from baseline in ADAS-cog and ADCS-ADL scores were conducted in the modified intent-to-treat (mITT) population (all randomised patients who took at least one dose of study treatment and had at least one post-baseline, on-treatment efficacy assessment). The primary analysis was specified as a mixed model repeated-measures (MMRM) analysis with an unstructured covariance matrix and no imputation for missing data. The model included categorical visit (5 levels corresponding to assessments at weeks 13, 26, 39, 52 and 65), treatment (3 levels corresponding to control, 75 mg b.i.d. and 125 mg b.i.d.), treatment-by-visit interaction, and the stratification variables as additive terms, and baseline ADAS-cog or ADCS-ADL as a covariate. A similar exploratory analysis was specified in the Statistical Analysis Plan (SAP) with the AChEI/Mem covariate as an interaction term with treatment and as an interaction term with visit. […]

[1] = Table 5, AChEI/Mem as interaction term, control arm (4 mg b.i.d.)
[2] = Table 6 post-hoc, control-arm subjects, 4 mg b.i.d. + AChEI/Mem
[3] = Table 6 post-hoc, 4 mg b.i.d. alone vs 4 mg b.i.d. + AChEI/Mem
[4] = Table 7, mild AD, 4 mg b.i.d. + AChEI/Mem (control-arm subjects)
[5] = Table 7, mild AD, 4 mg b.i.d. alone vs 4 mg b.i.d. + AChEI/Mem
[6] = Table 7, mild AD, 75 mg b.i.d. alone vs control arm as randomised
[7] = Table 7, mild AD, 125 mg b.i.d. alone vs control arm as randomised
[8] = Table 7, mild AD, control arm as randomised (4 mg b.i.d.)
[9] = Table 7, moderate AD, 4 mg b.i.d. + AChEI/Mem (control-arm subjects)
[10] = Table 7, moderate AD, 4 mg b.i.d. alone vs 4 mg b.i.d. + AChEI/Mem
[11] = Table 7, moderate AD, 75 mg b.i.d. alone vs control arm as randomised
[12] = Table 7, moderate AD, 125 mg b.i.d. alone vs control arm as randomised
[13] = Table 7, moderate AD, control arm as randomised (4 mg b.i.d.)

## CN(C)c1ccc2c(c1)Sc1cc(N(C)C)ccc1N2 [LMTM, leuco-methythioninium bis(hydromethanesulfonate)]
75 mg b.i.d. monotherapy
  Increase in TPV relative to control: 31%±8%
  Reduction in LVV (progression of atrophy) relative to control: 38%±9%
  HV, Estimate (difference vs control): 9.5 mm^3
  LVV, Estimate (difference vs control): −2,707 mm^3
  TPV, Estimate (difference vs control): 472 mm^3
125 mg b.i.d. monotherapy
  Increase in TPV relative to control: 26%±8%
  Reduction in LVV (progression of atrophy) relative to control: 33%±9%
  HV, Estimate (difference vs control): 20.0 mm^3
  LVV, Estimate (difference vs control): −2,347 mm^3
  TPV, Estimate (difference vs control): 405 mm^3
[1]
  HV, Estimate (change from baseline): −115.3 mm^3
  LVV, Estimate (change from baseline): 7,187 mm^3
  TPV, Estimate (change from baseline): −1529 mm^3
75 mg b.i.d. + AChEI/Mem
  HV, Estimate (difference vs control): −2.0 mm^3
  LVV, Estimate (difference vs control): −273 mm^3
  TPV, Estimate (difference vs control): −39 mm^3
125 mg b.i.d. + AChEI/Mem
  HV, Estimate (difference vs control): −7.4 mm^3
  LVV, Estimate (difference vs control): −306 mm^3
  TPV, Estimate (difference vs control): −12 mm^3
[2]
  HV, Estimate (change from baseline): −117.8 mm^3
  LVV, Estimate (change from baseline): 7,426 mm^3
  TPV, Estimate (change from baseline): −1,596 mm^3
[3]
  HV, Estimate (difference): 19.5 mm^3
  LVV, Estimate (difference): −1,894 mm^3
  TPV, Estimate (difference): 534 mm^3
[4]
  HV, Estimate (change from baseline): −119.5 mm^3
  LVV, Estimate (change from baseline): 6,167 mm^3
  TPV, Estimate (change from baseline): −1,398 mm^3
[5]
  HV, Estimate (difference): 46.7 mm^3
  LVV, Estimate (difference): −2,655 mm^3
  TPV, Estimate (difference): 722 mm^3
[6]
  HV, Estimate (difference): 16.9 mm^3
  LVV, Estimate (difference): −2,549 mm^3
  TPV, Estimate (difference): 392 mm^3
[7]
  HV, Estimate (difference): 40.5 mm^3
  LVV, Estimate (difference): −2,695 mm^3
  TPV, Estimate (difference): 439 mm^3
[8]
  HV, Estimate (change from baseline): −115.8 mm^3
  LVV, Estimate (change from baseline): 5,789 mm^3
  TPV, Estimate (change from baseline): −1,309 mm^3
[9]
  HV, Estimate (change from baseline): −116.6 mm^3
  LVV, Estimate (change from baseline): 8,143 mm^3
  TPV, Estimate (change from baseline): −1,697 mm^3
[10]
  HV, Estimate (difference): −2.4 mm^3
  LVV, Estimate (difference): −940 mm^3
  TPV, Estimate (difference): 370 mm^3
[11]
  HV, Estimate (difference): 3.6 mm^3
  LVV, Estimate (difference): −2,251 mm^3
  TPV, Estimate (difference): 469 mm^3
[12]
  HV, Estimate (difference): 2.2 mm^3
  LVV, Estimate (difference): −1,703 mm^3
  TPV, Estimate (difference): 293 mm^3
[13]
  HV, Estimate (change from baseline): −116.9 mm^3
  LVV, Estimate (change from baseline): 8,023 mm^3
  TPV, Estimate (change from baseline): −1,649 mm^3
Mild patients, LMTM monotherapy
  Hippocampus volume benefit (increase): 35.5 mm^3
